# Target: Nanoluciferase-BRD9 fusion protein (3×FLAG-NLuc-BRD9) in SYO-1 cells (Homo sapiens (Human), UniProt Q9H8M2)
# Assay: SYO1 BRD9 NanoLuc degradation assay
# Format: cell-based
# Conditions: SYO-1 cells expressing 3×FLAG-NLuc-BRD9, 6 hours incubation, top dose 1 μM
# Experimental: Procedure: A stable SYO-1 cell line expressing 3×FLAG-NLuc-BRD9 was generated. On day 0 cells were seeded in 30 μL media into each well of 384-well cell culture plates. The seeding density was 8000 cells/well. On day 1, cells were treated with 30 nL DMSO or 30 nL of 3-fold serially DMSO-diluted compounds (10 points in duplicates with 1 μM as final top dose). Subsequently plates were incubated for 6 hours in a standard tissue culture incubator and equilibrated at room temperature for 15 minutes. Nanoluciferase activity was measured by adding 15 μL of freshly prepared Nano-Glo Luciferase Assay Reagent (Promega N1130), shaking the plates for 10 minutes and reading the bioluminescence using an EnVision reader.
# Results: The Inhibition % was calculated using the following formula: % Inhibition=100×(LumHC−LumSample)/(LumHC−LumLC). DMSO treated cells are employed as High Control (HC) and 1 μM of a known BRD9 degrader standard treated cells are employed as Low Control (LC).
# Sequence of Nanoluciferase-BRD9 fusion protein (3×FLAG-NLuc-BRD9) in SYO-1 cells (Q9H8M2 whole entry, the tested form may be a part): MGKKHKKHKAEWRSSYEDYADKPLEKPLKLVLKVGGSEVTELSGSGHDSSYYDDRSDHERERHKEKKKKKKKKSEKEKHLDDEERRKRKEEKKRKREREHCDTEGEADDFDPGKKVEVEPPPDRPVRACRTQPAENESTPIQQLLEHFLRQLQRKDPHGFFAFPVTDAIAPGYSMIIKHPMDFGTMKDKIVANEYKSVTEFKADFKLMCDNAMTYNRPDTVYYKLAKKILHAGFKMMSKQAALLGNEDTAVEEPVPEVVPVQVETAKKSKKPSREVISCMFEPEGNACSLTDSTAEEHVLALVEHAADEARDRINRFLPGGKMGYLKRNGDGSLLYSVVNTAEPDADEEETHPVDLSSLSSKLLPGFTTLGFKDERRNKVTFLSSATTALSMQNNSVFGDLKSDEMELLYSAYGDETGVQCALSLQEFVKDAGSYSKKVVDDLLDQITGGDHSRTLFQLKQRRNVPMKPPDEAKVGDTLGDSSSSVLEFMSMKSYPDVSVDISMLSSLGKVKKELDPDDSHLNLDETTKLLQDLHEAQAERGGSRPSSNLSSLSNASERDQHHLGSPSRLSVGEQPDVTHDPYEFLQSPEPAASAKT
row,Structure (SMILES),IC50
1,CNC(=O)N1CCc2c(-c3cc(OC)c(CNC4CC45CCN(c4ccc6c(c4)C(=O)N(C4CCC(=O)NC4=O)C6=O)C5)c(OC)c3)cn(C)c(=O)c2C1 (centres unmarked) [Compound D156],< 10 nM
2,CNC(=O)N1CCc2c(-c3cc(OC)c(CN4CC(Oc5ccc6c(c5)C(=O)N(C5CCC(=O)NC5=O)C6=O)C4)c(OC)c3)cn(C)c(=O)c2C1 (centres unmarked) [Compound D116],< 10 nM
3,CNC(=O)N1CCc2c(-c3cc(OC)c(CN4CCC(CCN5CCN(c6ccc7c(c6)C(=O)N(C6CCC(=O)NC6=O)C7=O)CC5)CC4)c(OC)c3)cn(C3CC3)c(=O)c2C1 (centres unmarked) [Compound D118],< 10 nM
4,COc1cc(-c2cn(C)c(=O)c3c2CCN(C(=O)NC2CC4(C2)CN(CCOc2ccc5c(c2)C(=O)N(C2CCC(=O)NC2=O)C5=O)C4)C3)cc(OC)c1CN(C)C (centres unmarked) [Compound D264],≥ 1000 nM
5,COc1cc(-c2cn(C)c(=O)c3c2CCN(C(=O)NCC(F)F)C3)cc(OC)c1CN1CCN(CCC2CCN(c3ccc4c(c3)C(=O)N(C3CCC(=O)NC3=O)C4=O)CC2)CC1 (centres unmarked) [Compound D46],< 10 nM
6,COc1cc(-c2cn(C)c(=O)c3c2CCN(C(=O)NCCN2CCC4C(C2)CN4c2ccc4c(c2)C(=O)N(C2CCC(=O)NC2=O)C4=O)C3)cc(OC)c1CN(C)C (centres unmarked) [Compound D187],10 to 100 nM
7,CNC(=O)N1CCc2c(-c3cc(OC)c(CN4CCC5(CC4)CC(N4CCN(c6ccc7c(c6)C(=O)N(C6CCC(=O)NC6=O)C7=O)CC4)C5)c(OC)c3)cn(C)c(=O)c2C1 (centres unmarked) [Compound D255],< 10 nM
8,COc1cc(-c2cn(C)c(=O)c3c2CCN(C(=O)NCCCN2CCC(OCC4CCN(c5ccc6c(c5)C(=O)N(C5CCC(=O)NC5=O)C6=O)CC4)C2)C3)cc(OC)c1CN(C)C (centres unmarked) [Compound D229],10 to 100 nM
9,CNC(=O)N1CCc2c(-c3cc(OC)c(CN4CCC(C5(CN6CCN(c7ccc8c(c7)C(=O)N(C7CCC(=O)NC7=O)C8=O)CC6)CC5)CC4)c(OC)c3)cn(C)c(=O)c2C1 (centres unmarked) [Compound D174],< 10 nM
10,CNC(=O)N1CCc2c(-c3cc(OC)c(CN4CCN(CCC5CCN(c6ccc7c(c6)C(=O)N(C6CCC(=O)NC6=O)C7=O)CC5)CC4(C)C)c(OC)c3)cn(C)c(=O)c2C1 (centres unmarked) [Compound D102],< 10 nM
11,COc1cc(-c2cn(C)c(=O)c3c2COC3)cc(OC)c1CN1CC(CN2CCC3(CC2)CN(c2ccc4c(c2)C(=O)N(C2CCC(=O)NC2=O)C4)C3)C1 (centres unmarked) [Compound D302],< 10 nM
12,CNC(=O)N1CCc2c(-c3cc(OC)c(C(C)N4CC(CN5CCC6(CC5)CN(c5ccc7c(c5)C(=O)N(C5CCC(=O)NC5=O)C7)C6)C4)c(OC)c3)cn(C)c(=O)c2C1 (centres unmarked) [Compound D59],10 to 100 nM
13,COc1cc(-c2cn(C)c(=O)c3c2CCN(C(=O)NCCN2CCC(OCC4CCN(c5ccc6c(c5)C(=O)N(C5CCC(=O)NC5=O)C6=O)CC4)C2)C3)cc(OC)c1CN(C)C (centres unmarked) [Compound D206],100 to 1000 nM
14,COc1cc(-c2cn(C)c(=O)c3c2CCN(C(=O)NCCN2CCN(c4ccc5c(c4)C(=O)N(C4CCC(=O)NC4=O)C5=O)CC2)C3)cc(OC)c1CN(C)C (centres unmarked) [Compound D150],10 to 100 nM
15,CNC(=O)N1CCc2c(-c3cc(OC)c(CN4CCN(CC5CCN(c6ccc7c(c6)CN(C6CCC(=O)NC6=O)C7=O)CC5)CC4)c(OC)c3)cn(C)c(=O)c2C1 (centres unmarked) [Compound D39],< 10 nM
16,CNC(=O)N1CCc2c(-c3cc(OC)c(CN4CCN(CCC5CCN(c6ccc7c(c6)C(=O)N(C6CCC(=O)NC6=O)C7=O)CC5)C5CC54)c(OC)c3)cn(C)c(=O)c2C1 (centres unmarked) [Compound D96],< 10 nM
17,COc1cc(-c2cn(C)c(=O)c3c2CCN(C(=O)NCC2CC4(CCN(CCOc5ccc6c(c5)C(=O)N(C5CCC(=O)NC5=O)C6=O)CC4)O2)C3)cc(OC)c1CN(C)C (centres unmarked) [Compound D213],100 to 1000 nM
18,CNC(=O)N1CCc2c(-c3cc(OC)c(CN4CCC(F)(CN5CCN(c6ccc7c(c6)C(=O)N(C6CCC(=O)NC6=O)C7=O)CC5)CC4)c(OC)c3)cn(C)c(=O)c2C1 (centres unmarked) [Compound D147],< 10 nM
19,COc1cc(-c2cn(C)c(=O)c3c2CCN(C(=O)NCC2CC4(CCN(CCOc5ccc6c(c5)C(=O)N(C5CCC(=O)NC5=O)C6=O)CC4)C2)C3)cc(OC)c1CN(C)C (centres unmarked) [Compound D267],10 to 100 nM
20,CNC(=O)N1CCc2c(-c3cc(OC)c(CN4CCC(CCN5CCN(c6ccc7c(c6)C(=O)N(C6CCC(=O)N(COC(=O)OC(C)C)C6=O)C7=O)CC5)CC4)c(OC)c3)cn(C)c(=O)c2C1 (centres unmarked) [Compound D82],< 10 nM
21,CNC(=O)N1CCc2c(-c3cc(OC)c(CN4CCC5(CCC(N6Cc7cc8c(cc7C6)C(=O)N(C6CCC(=O)NC6=O)C8=O)CC5)CC4)c(OC)c3)cn(C)c(=O)c2C1 (centres unmarked) [Compound D181],< 10 nM
22,COc1cc(-c2cn(C)c(=O)c3c2CCN(C(=O)NCCN(C)CCNC(=O)COc2ccc4c(c2)CN(C2CCC(=O)NC2=O)C4=O)C3)cc(OC)c1CN(C)C (centres unmarked) [Compound D290],≥ 1000 nM
23,[2H]C([2H])([2H])n1cc(-c2cc(OC)c(CN3CCN(CCC4CCN(c5ccc6c(c5)C(=O)N(C5CCC(=O)NC5=O)C6=O)CC4)CC3)c(OC)c2)c2c(c1=O)CN(C(=O)NC)CC2 (centres unmarked) [Compound D45],< 10 nM
24,CNC(=O)N1CCc2c(-c3cc(OC)c(CN4CCC(CN5CCC6(CC5)CN(c5ccc7c(c5)CN(C5CCC(=O)NC5=O)C7=O)C6)CC4)c(OC)c3)cn(C)c(=O)c2C1 (centres unmarked) [Compound D56],< 10 nM
25,CNC(=O)N1CCc2c(-c3cc(OC)c(CN4CCC(CN(C)C5CCN(c6ccc7c(c6)C(=O)N(C6CCC(=O)NC6=O)C7=O)CC5)CC4)c(OC)c3)cn(C)c(=O)c2C1 (centres unmarked) [Compound D195],< 10 nM
26,CNC(=O)N1CCc2c(-c3cc(OC)c(CN4CCC(CCN5CCN(c6ccc(-c7cnn(C8CCC(=O)NC8=O)c7)cc6)CC5)CC4)c(OC)c3)cn(C)c(=O)c2C1 (centres unmarked) [Compound D76],< 10 nM
27,COc1cc(-c2cn(C)c(=O)c3c2CCN(C(=O)NCC2CC4CN(c5ccc6c(c5)C(=O)N([C@H]5CCC(=O)NC5=O)C6=O)CC4C2)C3)cc(OC)c1CN(C)C (some centres unmarked) [Compound D122],10 to 100 nM
28,CNC(=O)N1CCc2c(-c3cc(OC)c(CN4CC(CC(=O)N5CCC6(CC5)CC(Oc5ccc7c(c5)C(=O)N(C5CCC(=O)NC5=O)C7=O)C6)C4)c(OC)c3)cn(C)c(=O)c2C1 (centres unmarked) [Compound D275],10 to 100 nM
29,CNC(=O)N1CCc2c(-c3cc(OC)c(CN4CCC(CCN5C6CC5CN(c5ccc7c(c5)C(=O)N(C5CCC(=O)NC5=O)C7=O)C6)CC4)c(OC)c3)cn(C)c(=O)c2C1 (centres unmarked) [Compound D153],10 to 100 nM

# Same assay, conditions: SYO-1 cells expressing 3×FLAG-NLuc-BRD9, 6 hours incubation, top dose 1 μM; read-out: SYO1 BRD9-NanoLuc degradation IC50
row,Structure (SMILES),DC50
1,COc1cc(-c2cn(C)c(=O)c3c2CN(C)CC3)cc(OC)c1CN1CC(CN2CCC3(CC2)CN(c2ccc4c(c2)C(=O)N(C2CCC(=O)NC2=O)C4)C3)C1 (centres unmarked) [Compound D293],100 to 1000 nM

# Same assay, conditions: SYO-1 cells, 6 hours, Table 6A
row,Structure (SMILES),IC50
1,"CNC(=O)N1CCc2c(-c3cc(OC)c(CN4CCN(C(=O)COc5cccc6c5C(=O)N(C5CCC(=O)NC5=O)C6=O)CC4)c(OC)c3)cn(C)c(=O)c2C1 (centres unmarked) [Compound D2, 5-(4-[[4-(2-[[2-(2,6-dioxopiperidin-3-yl)-1,3-dioxoisoindol-4-yl]oxy]acetyl)piperazin-1-yl]methyl]-3,5-dimethoxyphenyl)-N,7-dimethyl-8-oxo-3,4-dihydro-1H-2,7-naphthyridine-2-carboxamide]",> 10 nM

# Same assay, conditions: SYO-1 cells, 6 hours, Table 6A; read-out: SYO1 BRD9-NanoLuc degradation IC50
row,Structure (SMILES),DC50
1,"COc1cc(-c2cn(C)c(=O)c3c2CCN(C(=O)NCCS(=O)(=O)CCNc2cccc4c2C(=O)N(C2CCC(=O)NC2=O)C4=O)C3)cc(OC)c1CN(C)C (centres unmarked) [Compound D7, 5-[4-[(dimethylamino)methyl]-3,5-dimethoxyphenyl]-N-[2-(2-[[2-(2,6-dioxopiperidin-3-yl)-1,3-dioxoisoindol-4-yl]amino]ethanesulfonyl)ethyl]-7-methyl-8-oxo-3,4-dihydro-1H-2,7-naphthyridine-2-carboxamide formic acid]",> 10 nM

# Same assay, conditions: SYO-1 cells, 6 hours, Table 6C
row,Structure (SMILES),IC50
1,CNC(=O)N1CCc2c(-c3cc(OC)c(CN4CCN(CCC5CCN(c6ccc7c(c6)CN(C6CCC(=O)NC6=O)C7=O)CC5)CC45CC5)c(OC)c3)cn(C)c(=O)c2C1 (centres unmarked) [Compound D310],< 10 nM
2,CNC(=O)N1CCc2c(-c3cc(OC)c(CN4CCC(CN5CCC6(CN(c7ccc8c(c7)C(=O)N(C7CCC(=O)NC7=O)C8)C6)C(F)(F)C5)CC4)c(OC)c3)cn(C)c(=O)c2C1 (centres unmarked) [Compound D315],< 10 nM
3,COc1cc(-c2cn(C)c(=O)c3c2COC3)cc(OC)c1CN1CCC2(CC1)CN(c1ccc3c(c1)C(=O)N(C1CCC(=O)NC1=O)C3)C2 (centres unmarked) [Compound D357],< 10 nM
4,CNC(=O)N1CCc2c(-c3cc(OC)c(CN4CCN(CCC5CCN(c6ccc7c(c6)CN(C6CCC(=O)NC6=O)C7=O)CC5(F)F)CC4)c(OC)c3)cn(C)c(=O)c2C1 (centres unmarked) [Compound D330],< 10 nM
5,COc1cc(-c2cn(C)c(=O)c3c2COC3)cc(OC)c1CN1CCC2(CC1)CN(c1ccc3c(c1)C(=O)N(C1CCC(=O)NC1=O)C3=O)C2 (centres unmarked) [Compound D358],< 10 nM
6,CNC(=O)N1CCc2c(-c3cc(OC)c(CN4CCC(C(N5CCC6(CC5)CC(Oc5ccc7c(c5)C(=O)N(C5CCC(=O)NC5=O)C7=O)C6)C(F)(F)F)CC4)c(OC)c3)cn(C)c(=O)c2C1 (centres unmarked) [Compound D343],≥ 1000 nM
7,COc1cc(-c2cn(C)c(=O)c3c2CCC3)cc(OC)c1CN1CC(C#Cc2ccc3c(c2)C(=O)N(C2CCC(=O)NC2=O)C3)C1 (centres unmarked) [Compound D365],< 10 nM
8,COc1cc(-c2cn(C)c(=O)c3c2CCC3)cc(OC)c1CN1CCN(c2ccc3c(c2)C(=O)N(C2CCC(=O)NC2=O)C3)CC1 (centres unmarked) [Compound D364],< 10 nM
9,COc1cc(-c2cn(C)c(=O)c3c2CCCN3)cc(OC)c1CN1CCC2(CC1)CN(c1ccc3c(c1)C(=O)N(C1CCC(=O)NC1=O)C3=O)C2 (centres unmarked) [Compound D351],≥ 10 nM
